# Counter-ions that a name gives are not always drawn.
# Key:
# [1] = target: Human recombinant monoamine oxidase MAO-A (Homo sapiens (Human), UniProt P21397); experiment: Monoamine oxidase assay (kynuramine to 4-hydroxyquinoline fluorescence), MAO-A; type: biochemical; conditions: for Ki: Table 1, term Ki value used as designation for the IC50 value; for IC50: Table 2
# Excerpt: (§1) Human recombinant monoamine oxidase proteins MAO-A and MAO-B were purchased from Sigma Aldrich. MAOs catalyze the oxidative deamination of primary, secondary and tertiary amines. In order to monitor MAO enzymatic activities and/or their inhibition rate by inhibitor(s) of interest, a fluorescence-based (inhibitor)-screening assay was set up. 3-(2-Aminophenyl)-3-oxopropanamine (kynuramine dihydrobromide, Sigma Aldrich), a non fluorescent compound was chosen as a substrate. Kynuramine is a non-specific substrate for both MAO-A and MAO-B activities. While undergoing oxidative deamination by MAO activities, kynuramine is converted into 4-hydroxyquinoline (4-HQ), a resulting fluorescent product.
# (§2) The monoamine oxidase activity was estimated by measuring the conversion of kynuramine into 4-hydroxyquinoline. Assays were conducted in 96-well black plates with clear bottom (Corning) in a final volume of 100 μL. The assay buffer was 100 mM HEPES, pH 7.5. Each experiment was performed in duplicate within the same experiment.
# Clorgyline and Deprenyl (Sigma Aldrich) was used as a control for specific inhibition of MAO-A and MAO-B respectively.
# After leaving the enzyme(s) interacting with the inhibitor, KM of kynuramine was added to each reaction for MAO-B and MAO-A assay respectively, and the reaction was left for 1 hour at 37° C. in the dark. The oxidative deamination of the substrate was stopped by adding 50 μL of NaOH 2N.
# (§3) The IC50 values of each inhibitor were calculated with GraphPad Prism Software.
# [2] = target: Human recombinant monoamine oxidase MAO-B (Homo sapiens (Human), UniProt P27338); experiment: Monoamine oxidase assay (kynuramine to 4-hydroxyquinoline fluorescence), MAO-B; type: biochemical; conditions: Table 2
# Excerpt: as §1, §2
# Clorgyline and Deprenyl (Sigma Aldrich) was used as a control for specific inhibition of MAO-A and MAO-B respectively. […]
# as §3
# [3] = tested on: THP-1 cells; experiment: Induction of differentiation of THP-1 leukemia cells (CD11b membrane expression, flow cytometry); type: cell-based, human; conditions: at 100 nM, 96 h treatment
# Description: By analyzing the induction of CD11b membrane expression on THP-1 cells we are assessing the ability of LSD1 inhibitors to induce terminal monocytic differentiation of a MLL-AF9 AML cell line. […] They carry t(9;11)(p21;q23) leading to MLL-MLLT3 (MLL-AF9) fusion gene. This cell line can undergo monocytic differentiation upon treatment with the appropriate stimulus. […] In this assay, 150,000 THP-1 cells were seeded in 1 ml of complete culture medium in 6-well tissue culture plates. […] Cells were kept in the presence of test compound for 96 h at a 5% CO2 atmosphere at 37° C. After this treatment period, cells were harvested, washed twice with PBS buffer and placed in a V-bottom 96-well plate. Each treated sample was split in two. […] Percentage of CD11b positive cells, as an indicator of monocytic differentiation, was determined compared to isotype control antibody stained cells. EC50 values were calculated by non-linear regression analysis.
# Human recombinant monoamine oxidase MAO-A, sequence (P21397 whole entry): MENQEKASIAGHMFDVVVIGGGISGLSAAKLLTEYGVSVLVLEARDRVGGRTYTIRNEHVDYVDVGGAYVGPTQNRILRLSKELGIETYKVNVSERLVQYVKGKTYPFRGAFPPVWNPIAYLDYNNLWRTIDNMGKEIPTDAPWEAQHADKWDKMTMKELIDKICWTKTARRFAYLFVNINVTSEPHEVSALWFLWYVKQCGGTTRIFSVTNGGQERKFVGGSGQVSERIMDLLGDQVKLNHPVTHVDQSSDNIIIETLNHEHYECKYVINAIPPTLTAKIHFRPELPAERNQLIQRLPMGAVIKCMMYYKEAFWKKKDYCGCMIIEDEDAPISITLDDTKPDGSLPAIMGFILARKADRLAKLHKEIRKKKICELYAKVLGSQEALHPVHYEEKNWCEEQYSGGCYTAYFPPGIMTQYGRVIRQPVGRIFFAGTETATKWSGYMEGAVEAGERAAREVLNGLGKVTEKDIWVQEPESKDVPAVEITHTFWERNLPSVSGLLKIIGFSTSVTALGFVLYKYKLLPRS
IC50 [2] [µM],SMILES,Ki [1] [µM],IC50 [1] [µM],CD11b+ cells [3] [% CD11b+ cells at 100 nM]
,"NC1CCC(N[C@H]2C[C@@H]2c2ccccc2)CC1 (mixture of isomers) [Example 1, N1-((trans)-2-phenylcyclopropyl)cyclohexane-1,4-diamine dihydrochloride]",> 40,> 100,
,"NC1CCC(N[C@@H]2C[C@@H]2c2ccccc2)CC1 (relative stereo) [Example 21, N1-((cis)-2-phenylcyclopropyl)cyclohexane-1,4-diamine]",,5.23,
,"N[C@H]1CC[C@@H](N[C@H]2C[C@@H]2c2ccccc2)CC1 [Example 2, (cis)-N1-((1S,2R)-2-phenylcyclopropyl)cyclohexane-1,4-diamine hydrochloride]",> 40,> 100,
,"Cl.N[C@H]1CC[C@H](N[C@H]2C[C@@H]2c2ccccc2)CC1 [Example 3, (trans)-N1-((1S,2R)-2-phenylcyclopropyl)cyclohexane-1,4-diamine hydrochloride]",> 40,> 100,13
,"N[C@H]1CC[C@@H](N[C@@H]2C[C@H]2c2ccccc2)CC1 [Example 4, (cis)-N1-((1R,2S)-2-phenylcyclopropyl)cyclohexane-1,4-diamine hydrochloride]",> 40,> 100,
,"N[C@H]1CC[C@H](N[C@@H]2C[C@H]2c2ccccc2)CC1 [Example 5, (trans)-N1-((1R,2S)-2-phenylcyclopropyl)cyclohexane-1,4-diamine hydrochloride]",,> 100,

# Reference: patent US9469597B2, “(Hetero)aryl cyclopropylamine compounds as LSD1 inhibitors” (ORYZON GENOMICS, S.A., priority 2011, dated 2016)
